# Source: ChEMBL document CHEMBL1157604 (J Med Chem, 2010)
# The source made the active and inactive calls. The rule behind the calls is not given here.
# Tests used:
# Mus musculus [1] = species: Mus musculus; assay: Antinociceptive activity in ICR mouse D'Amour and Smith model of pain assessed as inhibition of nicotine-induced response by tail-flick test; assay type: functional
# [2] = molecular target: Neuronal acetylcholine receptor; alpha4/beta4 (Homo sapiens) (UniProt P30926+P43681); assay: Intrinsic activity at human alpha4beta4 nAChR receptor expressed in human SH-SY5Y cells assessed as 86Rb+ efflux at 5 to 100 uM by liquid scintillation counting; assay type: cell-based
# Mus musculus [3] = species: Mus musculus; assay: Effect on body temperature in ICR mouse assessed as inhibition of nicotine-induced hypothermic response; assay type: functional
# [4] = molecular target: Neuronal acetylcholine receptor; alpha3/beta4 (Homo sapiens) (UniProt P30926+P32297); assay: Intrinsic activity at alpha3beta4 nAChR receptor in human SH-SY5Y cells assessed as 86Rb+ efflux at 5 to 100 uM by liquid scintillation counting; assay type: cell-based
# [5] = molecular target: Acetylcholine receptor; alpha1/beta1/delta/gamma (Homo sapiens) (UniProt P02708+P07510+P11230+Q07001); assay: Intrinsic activity at alpha-1-beta-1-gamma-delta nAChR receptor expressed in human TE671/RD cells assessed as 86Rb+ efflux at 5 to 100 uM by liquid scintillation counting; assay type: cell-based
# [6] = molecular target: Neuronal acetylcholine receptor; alpha4/beta2 (Homo sapiens) (UniProt P17787+P43681); assay: Intrinsic activity at human alpha4beta2 nAChR receptor expressed in human SH-SY5Y cells assessed as 86Rb+ efflux at 5 to 100 uM by liquid scintillation counting; assay type: cell-based
# Mus musculus [7] = species: Mus musculus; assay: Antinociceptive activity in ICR mouse assessed as inhibition of nicotine-induced response by hotplate test; assay type: functional
# Mus musculus [8] = species: Mus musculus; assay: Effect on behavioral activity in ICR mouse assessed as inhibition of nicotine-induced locomotory response by locomotor assay; assay type: functional
# [9] = molecular target: Sodium-dependent dopamine transporter (Homo sapiens, UniProt Q01959); assay: Inhibition of [3H]dopamine uptake at human DAT expressed in HEK293 cells; assay type: cell-based
# Sequence of Sodium-dependent dopamine transporter (Q01959 whole entry): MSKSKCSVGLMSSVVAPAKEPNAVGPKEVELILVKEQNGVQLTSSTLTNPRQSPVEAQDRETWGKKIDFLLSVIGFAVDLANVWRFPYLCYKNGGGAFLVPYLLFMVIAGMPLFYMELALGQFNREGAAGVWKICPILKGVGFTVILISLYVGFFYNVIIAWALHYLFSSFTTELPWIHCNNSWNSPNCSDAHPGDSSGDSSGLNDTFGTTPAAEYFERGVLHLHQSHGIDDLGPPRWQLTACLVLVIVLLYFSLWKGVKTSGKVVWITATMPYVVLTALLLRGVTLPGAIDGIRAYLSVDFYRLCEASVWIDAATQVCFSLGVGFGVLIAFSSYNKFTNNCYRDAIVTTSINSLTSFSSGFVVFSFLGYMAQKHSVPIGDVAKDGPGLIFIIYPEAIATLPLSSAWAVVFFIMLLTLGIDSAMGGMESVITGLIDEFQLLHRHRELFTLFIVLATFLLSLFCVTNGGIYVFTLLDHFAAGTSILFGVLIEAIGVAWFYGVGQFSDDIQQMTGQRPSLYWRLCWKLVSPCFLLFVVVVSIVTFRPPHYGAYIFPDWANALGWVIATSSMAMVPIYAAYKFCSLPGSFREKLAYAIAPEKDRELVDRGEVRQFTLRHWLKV
# [10] = molecular target: Sodium-dependent noradrenaline transporter (Homo sapiens, UniProt P23975); assay: Inhibition of [3H]norepinephrine uptake at human NET expressed in HEK293 cells; assay type: cell-based
# Sequence of Sodium-dependent noradrenaline transporter (P23975 whole entry): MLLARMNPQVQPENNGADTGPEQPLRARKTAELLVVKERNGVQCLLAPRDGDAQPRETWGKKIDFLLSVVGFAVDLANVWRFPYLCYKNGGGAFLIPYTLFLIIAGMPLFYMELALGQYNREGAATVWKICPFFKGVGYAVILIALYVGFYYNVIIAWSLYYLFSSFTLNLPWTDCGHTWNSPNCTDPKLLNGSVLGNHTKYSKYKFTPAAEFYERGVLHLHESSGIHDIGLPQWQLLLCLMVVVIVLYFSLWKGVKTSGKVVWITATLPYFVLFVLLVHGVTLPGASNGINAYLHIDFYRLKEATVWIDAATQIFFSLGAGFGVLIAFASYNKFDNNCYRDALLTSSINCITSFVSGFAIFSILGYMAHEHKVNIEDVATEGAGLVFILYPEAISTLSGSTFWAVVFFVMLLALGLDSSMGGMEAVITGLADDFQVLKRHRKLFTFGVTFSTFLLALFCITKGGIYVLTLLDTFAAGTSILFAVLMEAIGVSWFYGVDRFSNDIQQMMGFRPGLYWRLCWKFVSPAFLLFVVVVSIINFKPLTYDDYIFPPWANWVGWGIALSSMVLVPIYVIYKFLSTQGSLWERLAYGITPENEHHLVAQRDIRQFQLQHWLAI
SMILES,AD50 (Mus musculus [1]),Activity [2],AD50 (Mus musculus [3]),Activity [4],Activity [5],Activity [6],AD50 (Mus musculus [7]),AD50 (Mus musculus [8]),IC50 [9] [nM],IC50 [10] [nM]
CC(NC(C)(C)C)C(=O)c1cccc([N+](=O)[O-])c1 (stereo not given),inactive,inactive,inactive,inactive,inactive,inactive,inactive,inactive,–,–
CC(NC1CCCC1)C(=O)c1cccc(Br)c1 (stereo not given),inactive,inactive,inactive,inactive,inactive,inactive,inactive,inactive,845,2530
CC(C(=O)c1cccc([N+](=O)[O-])c1)N1CCCCC1 (stereo not given),inactive,inactive,inactive,inactive,inactive,inactive,inactive,inactive,10000,–
CC(CNC(C)(C)C)C(=O)c1cccc(Cl)c1 (stereo not given),10.5 mg/kg,inactive,16 mg/kg,inactive,inactive,inactive,inactive,inactive,–,–
CCC(NC(C)(C)C)C(=O)c1cccc(Cl)c1 (stereo not given),0.5 mg/kg,inactive,inactive,inactive,inactive,inactive,inactive,11.7 mg/kg,209,–
CC(C(=O)c1cccc(Cl)c1)N1CCCCC1 (stereo not given),0.05 mg/kg,inactive,inactive,inactive,inactive,inactive,inactive,inactive,852,2520
Cc1cc(C(=O)C(C)NC(C)(C)C)ccc1Br (stereo not given),0.015 mg/kg,inactive,inactive,inactive,inactive,inactive,inactive,inactive,–,7250
CC(C(=O)c1cccc(Cl)c1)N(C)C(C)(C)C (stereo not given),0.46 mg/kg,inactive,inactive,inactive,inactive,inactive,8.7 mg/kg,inactive,6000,1570
CC(NC(C)(C)C)C(=O)c1cccc(Cl)c1 (stereo not given) [BUPROPION],1.2 mg/kg,inactive,9.2 mg/kg,inactive,inactive,inactive,15 mg/kg,–,–,–
CC(NC1CCCC1)C(=O)c1cccc(F)c1 (stereo not given),inactive,inactive,inactive,inactive,inactive,inactive,inactive,inactive,693,2850
CC(NC1CCCC1)C(=O)c1cccc([N+](=O)[O-])c1 (stereo not given),inactive,inactive,inactive,inactive,inactive,inactive,inactive,inactive,–,–
Cc1ccc(C(=O)C(C)NC(C)(C)C)cc1 (stereo not given),0.09 mg/kg,inactive,8.8 mg/kg,inactive,inactive,inactive,7.75 mg/kg,11.8 mg/kg,1950,–
CC(NC(C)(C)C)C(=O)c1cc(Cl)cc(Cl)c1 (stereo not given),0.028 mg/kg,inactive,inactive,inactive,inactive,inactive,4.3 mg/kg,inactive,–,14000
CC(NC(C)(C)C)C(=O)c1cccc(F)c1 (stereo not given),inactive,inactive,inactive,inactive,inactive,inactive,inactive,inactive,2320,6500
CC(C(=O)c1cccc(Cl)c1)N(C)C (stereo not given),5.2 mg/kg,inactive,inactive,inactive,inactive,inactive,inactive,inactive,1750,1520
CC(NC1CCCC1)C(=O)c1cccc(Cl)c1 (stereo not given),0.014 mg/kg,inactive,inactive,inactive,inactive,inactive,inactive,inactive,–,–
Cc1cccc(C(=O)C(C)NC2CCCC2)c1 (stereo not given),inactive,inactive,inactive,inactive,inactive,inactive,inactive,inactive,842,8700
CCCC(NC(C)(C)C)C(=O)c1cccc(Cl)c1 (stereo not given),10 mg/kg,inactive,inactive,inactive,inactive,inactive,inactive,inactive,56,370
CC(NC(C)(C)C)C(=O)c1cccs1 (stereo not given),0.077 mg/kg,inactive,inactive,inactive,inactive,inactive,inactive,inactive,–,–
CC(NC(C)(C)C)C(=O)c1cccc(Br)c1 (stereo not given),0.12 mg/kg,inactive,11.5 mg/kg,inactive,inactive,inactive,14.9 mg/kg,27.1 mg/kg,511,5600
Cc1cccc(C(=O)C(C)NC(C)(C)C)c1 (stereo not given),0.05 mg/kg,inactive,7.8 mg/kg,inactive,inactive,inactive,6.8 mg/kg,4.3 mg/kg,–,6200
COc1cccc(C(=O)C(C)NC(C)(C)C)c1 (stereo not given),1.6 mg/kg,inactive,inactive,inactive,inactive,inactive,inactive,inactive,3620,–
